Results from the supplement of paper PMC10307832.

Legend:
Assay in all cases: relative viability (nuclei count vs DMSO), 5 days (fraction); higher = more cells survive
NCI-H2085 = system: NCI-H2085
Method in brief: (§1)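 Lung cancer cell lines were seeded in 1536-well plates and dosed by pin tool the next day, with either a single drug or a fixed anchor-drug dose combined with five library-drug doses (not always all listed) spaced in √10 steps. Five days later, one step fixed the cells and stained their nuclei (final 0.05% Triton X-100, 1% formaldehyde, 1 ug/ml Hoechst), and nuclei were counted on 4× images. Relative viability is the nuclei count in treated wells divided by the count in vehicle wells, and each value is the median of duplicate plates.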

NCI-H1755 = system: NCI-H1755
Method in brief: as §1

UMC-11 = system: UMC-11
Method in brief: as §1

NCI-H358 = system: NCI-H358
Method in brief: as §1

NCI-H460 = system: NCI-H460
Method in brief: as §1

LU99A = system: LU99A
Method in brief: as §1

SW 900 = system: SW 900
Method in brief: as §1

LCLC-97TM1 = system: LCLC-97TM1
Method in brief: as §1

NCI-H2170 = system: NCI-H2170
Method in brief: as §1

NCI-H1915 = system: NCI-H1915
Method in brief: as §1

A-427 = system: A-427
Method in brief: as §1

NCI-H2342 = system: NCI-H2342
Method in brief: as §1

HOP-62 = system: HOP-62
Method in brief: as §1

LC-2-ad = system: LC-2-ad
Method in brief: as §1

COR-L 105 = system: COR-L 105
Method in brief: as §1

HCC-366 = system: HCC-366
Method in brief: as §1

HCC-78 = system: HCC-78
Method in brief: as §1

NCI-H1944 = system: NCI-H1944
Method in brief: as §1

NCI-H1793 = system: NCI-H1793
Method in brief: as §1

LXF-289 = system: LXF-289
Method in brief: as §1

EPLC-272H = system: EPLC-272H
Method in brief: as §1

NCI-H1792 = system: NCI-H1792
Method in brief: as §1

SK-LU-1 = system: SK-LU-1
Method in brief: as §1

NCI-H1975 = system: NCI-H1975
Method in brief: as §1

`Clc1ccc(Nc2nnc(Cc3ccncc3)c3ccccc23)cc1` [Vatalanib] + O=C(c1cc(Cc2n[nH]c(=O)c3ccccc23)ccc1F)N1CCN(C(=O)C2CC2)CC1 [Olaparib] (partner 8 µM) showed a relative viability (NCI-H2085; first compound 0.04 µM) of 0.839, a relative viability (NCI-H2085; first compound 0.1265 µM) of 0.81 and a relative viability (NCI-H2085; first compound 0.4 µM) of 0.812. The relative viability (NCI-H2085; first compound 1.265 µM) was 0.795, the relative viability (NCI-H2085; first compound 4 µM) was 0.727 and the relative viability (NCI-H1755; first compound 0.04 µM) was 0.773. The relative viability (NCI-H1755; first compound 0.1265 µM) was 0.847, the relative viability (NCI-H1755; first compound 0.4 µM) was 0.878 and the relative viability (NCI-H1755; first compound 1.265 µM) was 0.901. For the same compound, the relative viability (NCI-H1755; first compound 4 µM) was 0.838, the relative viability (UMC-11; first compound 0.04 µM) was 0.331 and the relative viability (UMC-11; first compound 0.1265 µM) was 0.39. For the same compound, the relative viability (UMC-11; first compound 0.4 µM) was 0.318, the relative viability (UMC-11; first compound 1.265 µM) was 0.468 and the relative viability (UMC-11; first compound 4 µM) was 0.297. For the same compound, the relative viability (NCI-H358; first compound 0.04 µM) was 0.566, the relative viability (NCI-H358; first compound 0.1265 µM) was 0.548 and the relative viability (NCI-H358; first compound 0.4 µM) was 0.639. The relative viability (NCI-H358; first compound 1.265 µM) was 0.769, the relative viability (NCI-H358; first compound 4 µM) was 0.562 and the relative viability (NCI-H460; first compound 0.04 µM) was 0.4. The relative viability (NCI-H460; first compound 0.1265 µM) was 0.44, the relative viability (NCI-H460; first compound 1.265 µM) was 0.494 and the relative viability (NCI-H460; first compound 4 µM) was 0.377. It also gave a relative viability (LU99A; first compound 0.04 µM) of 0.252, a relative viability (LU99A; first compound 0.1265 µM) of 0.281 and a relative viability (LU99A; first compound 0.4 µM) of 0.237. It also gave a relative viability (LU99A; first compound 1.265 µM) of 0.23, a relative viability (LU99A; first compound 4 µM) of 0.309 and a relative viability (SW 900; first compound 0.04 µM) of 0.759. The relative viability (SW 900; first compound 0.1265 µM) was 0.674, the relative viability (SW 900; first compound 0.4 µM) was 0.997 and the relative viability (SW 900; first compound 1.265 µM) was 0.853. It also gave a relative viability (SW 900; first compound 4 µM) of 0.93, a relative viability (LCLC-97TM1; first compound 0.04 µM) of 0.357 and a relative viability (LCLC-97TM1; first compound 0.1265 µM) of 0.375. It also gave a relative viability (LCLC-97TM1; first compound 0.4 µM) of 0.338, a relative viability (LCLC-97TM1; first compound 1.265 µM) of 0.39 and a relative viability (LCLC-97TM1; first compound 4 µM) of 0.345. The relative viability (NCI-H2170; first compound 0.04 µM) was 0.623, the relative viability (NCI-H2170; first compound 0.1265 µM) was 0.656 and the relative viability (NCI-H2170; first compound 0.4 µM) was 0.702. The relative viability (NCI-H2170; first compound 1.265 µM) was 0.512, the relative viability (NCI-H2170; first compound 4 µM) was 0.556 and the relative viability (NCI-H1915; first compound 0.04 µM) was 0.258. For the same compound, the relative viability (NCI-H1915; first compound 0.1265 µM) was 0.265, the relative viability (NCI-H1915; first compound 0.4 µM) was 0.275 and the relative viability (NCI-H1915; first compound 1.265 µM) was 0.233. The relative viability (NCI-H1915; first compound 4 µM) was 0.253, the relative viability (A-427; first compound 0.04 µM) was 0.664 and the relative viability (A-427; first compound 0.1265 µM) was 0.729. It also gave a relative viability (A-427; first compound 0.4 µM) of 0.768, a relative viability (A-427; first compound 4 µM) of 0.666 and a relative viability (NCI-H2342; first compound 0.04 µM) of 0.397. The relative viability (NCI-H2342; first compound 0.1265 µM) was 0.452, the relative viability (NCI-H2342; first compound 0.4 µM) was 0.461 and the relative viability (NCI-H2342; first compound 1.265 µM) was 0.365. The relative viability (NCI-H2342; first compound 4 µM) was 0.471, the relative viability (HOP-62; first compound 0.04 µM) was 0.385 and the relative viability (HOP-62; first compound 0.1265 µM) was 0.389. The relative viability (HOP-62; first compound 0.4 µM) was 0.523, the relative viability (HOP-62; first compound 1.265 µM) was 0.41 and the relative viability (HOP-62; first compound 4 µM) was 0.419. For the same compound, the relative viability (LC-2-ad; first compound 0.04 µM) was 0.661, the relative viability (LC-2-ad; first compound 0.1265 µM) was 0.67 and the relative viability (LC-2-ad; first compound 0.4 µM) was 0.686. The relative viability (LC-2-ad; first compound 1.265 µM) was 0.694, the relative viability (LC-2-ad; first compound 4 µM) was 0.69 and the relative viability (COR-L 105; first compound 0.04 µM) was 0.719. The relative viability (COR-L 105; first compound 0.1265 µM) was 0.762, the relative viability (COR-L 105; first compound 0.4 µM) was 0.738 and the relative viability (COR-L 105; first compound 1.265 µM) was 0.645. It also gave a relative viability (COR-L 105; first compound 4 µM) of 0.703, a relative viability (HCC-366; first compound 0.04 µM) of 0.337 and a relative viability (HCC-366; first compound 0.1265 µM) of 0.34. It also gave a relative viability (HCC-366; first compound 0.4 µM) of 0.416, a relative viability (HCC-366; first compound 1.265 µM) of 0.334 and a relative viability (HCC-366; first compound 4 µM) of 0.303. For the same compound, the relative viability (HCC-78; first compound 0.04 µM) was 0.899, the relative viability (HCC-78; first compound 0.1265 µM) was 0.865 and the relative viability (HCC-78; first compound 0.4 µM) was 0.761. For the same compound, the relative viability (HCC-78; first compound 1.265 µM) was 0.823, the relative viability (HCC-78; first compound 4 µM) was 0.775 and the relative viability (NCI-H1944; first compound 0.04 µM) was 0.408. For the same compound, the relative viability (NCI-H1944; first compound 0.1265 µM) was 0.403, the relative viability (NCI-H1944; first compound 0.4 µM) was 0.417 and the relative viability (NCI-H1944; first compound 1.265 µM) was 0.392. The relative viability (NCI-H1944; first compound 4 µM) was 0.384, the relative viability (NCI-H1793; first compound 0.04 µM) was 0.871 and the relative viability (NCI-H1793; first compound 0.1265 µM) was 0.713. It also gave a relative viability (NCI-H1793; first compound 0.4 µM) of 1.02, a relative viability (NCI-H1793; first compound 1.265 µM) of 0.788 and a relative viability (NCI-H1793; first compound 4 µM) of 0.78. It also gave a relative viability (LXF-289; first compound 0.04 µM) of 1.04, a relative viability (LXF-289; first compound 0.1265 µM) of 1 and a relative viability (LXF-289; first compound 0.4 µM) of 1.13. For the same compound, the relative viability (LXF-289; first compound 1.265 µM) was 0.975, the relative viability (LXF-289; first compound 4 µM) was 1.03 and the relative viability (EPLC-272H; first compound 0.04 µM) was 0.944. The relative viability (EPLC-272H; first compound 0.1265 µM) was 0.79, the relative viability (EPLC-272H; first compound 0.4 µM) was 1.04 and the relative viability (EPLC-272H; first compound 1.265 µM) was 0.688. The relative viability (EPLC-272H; first compound 4 µM) was 0.86, the relative viability (NCI-H1792; first compound 0.04 µM) was 0.52 and the relative viability (NCI-H1792; first compound 0.1265 µM) was 0.384. The relative viability (NCI-H1792; first compound 0.4 µM) was 0.399, the relative viability (NCI-H1792; first compound 1.265 µM) was 0.344 and the relative viability (NCI-H1792; first compound 4 µM) was 0.413. It also gave a relative viability (SK-LU-1; first compound 0.04 µM) of 0.438, a relative viability (SK-LU-1; first compound 0.1265 µM) of 0.449 and a relative viability (SK-LU-1; first compound 0.4 µM) of 0.52. The relative viability (SK-LU-1; first compound 1.265 µM) was 0.467, the relative viability (SK-LU-1; first compound 4 µM) was 0.365 and the relative viability (NCI-H1975; first compound 0.04 µM) was 0.84. The relative viability (NCI-H1975; first compound 0.1265 µM) was 0.727, the relative viability (NCI-H1975; first compound 0.4 µM) was 0.729 and the relative viability (NCI-H1975; first compound 1.265 µM) was 0.709. It also gave a relative viability (NCI-H1975; first compound 4 µM) of 0.695.
